ChEMBL document CHEMBL2311345, “Facile synthesis and characterization of novel pyrazole-sulfonamides and their inhibition effects on human carbonic anhydrase isoenzymes” (Bioorg Med Chem, 2013)

Tests used:
Carbonic anhydrase 1 = Carbonic anhydrase 1 (Homo sapiens, UniProt P00915); test: Un-competitive inhibition of human erythrocytes carbonic anhydrase 1 esterase activity by Lineweaver-Burk plot analysis
Carbonic anhydrase 2 = Carbonic anhydrase 2 (Homo sapiens, UniProt P00918); test: Un-competitive inhibition of human erythrocytes carbonic anhydrase 2 esterase activity by Lineweaver-Burk plot analysis

Carbonic anhydrase 1, sequence (P00915 whole entry): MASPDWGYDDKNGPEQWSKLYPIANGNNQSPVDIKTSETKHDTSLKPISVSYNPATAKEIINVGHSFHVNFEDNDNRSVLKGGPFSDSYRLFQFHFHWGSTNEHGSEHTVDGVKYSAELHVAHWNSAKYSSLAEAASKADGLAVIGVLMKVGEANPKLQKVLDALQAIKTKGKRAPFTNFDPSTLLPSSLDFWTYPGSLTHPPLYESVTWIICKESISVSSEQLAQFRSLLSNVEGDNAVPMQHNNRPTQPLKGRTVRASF

Row | SMILES | Ki (Carbonic anhydrase 1) [µM] | Ki (Carbonic anhydrase 2) [µM]
1 | CC(=O)/C(=N\Nc1cccc(-n2nc(C(=O)Nc3ccc(S(N)(=O)=O)cc3)c(C(=O)O)c2-c2ccccc2)c1)C(=O)c1ccccc1 | 0.0623 | 
2 | NS(=O)(=O)c1ccc(NC(=O)c2nn(-c3cccc(/N=N/c4c(O)ccc5ccccc45)c3)c(-c3ccccc3)c2C(=O)O)cc1 |  | 0.0124
